From patent publication US20250090498A1, “TREATMENT OF PRIMARY CTLA-4 CHECKPOINT RELATED IMMUNODEFICIENCIES” (ADIENNE PHARMA & BIOTECH SA, priority 2023, published 2025)
Entries after “also recorded” stand apart in the source; their conditions may differ.

Tests used:
[1] = tested on: DSS+anti-CTLA-4-induced colitis; assay: DSS+anti-CTLA-4-induced colitis in C57BL/6 mice; type: in vivo; details: for lymphocytic infiltration, dose dependence: 0.09-0.045-0.022 mg/mouse (4.5, 2.25 and 1.12 mg/kg), lung, spleen, liver, kidney; for efficacy dose: intragastrically every other day, Eudragit formulations
Experimental: In trials, C57BL/6 mice received dextran sulfate sodium (DSS) (3%) in their drinking water and 100 μg anti-CTLA-4 monoclonal antibody (mAb) or isotype control antibody intraperitoneally, at days 0, 4 and 8 following the DSS administration as indicated in FIG. 2A. DSS is a water soluble, negatively charged sulfated polysaccharide with a highly variable molecular weight ranging from 5 to 1400 kDa. […] Eudragit-formulated 3-IAld (Puccetti et al, 2018) was given at 18 mg/kg 3-IAld intragastrically every other day, as illustrated in FIG. 2A. Animals were monitored daily for appearance of diarrhea, fecal blood, loss of body weight and survival. A week after DSS treatment (14 days after initiation of treatment), at the time at which the model recapitulates the human disease (Manicassamy et al, 2014), surviving mice were sacrificed, and the colon was excised and evaluated for macroscopic damage and local immune parameters.
In trials, C57BL/6 mice received dextran sulfate sodium (DSS) (3%) in their drinking water and 100 μg anti-CTLA-4 monoclonal antibody (mAb) or isotype control antibody intraperitoneally, at days 0, 4 and 8 following the DSS administration as indicated in FIG. 17A. Eudragit-formulated 1-methylindole-3-carboxylic acid was given intragastrically every other day, at scaling doses of 0.09, 0.18, or 0.36 mg/mouse (FIG. 17A). Animals were monitored daily for the appearance of diarrhea, fecal blood and loss of body weight. A week after DSS treatment (14 days after initiation of treatment), at the time at which the murine model recapitulates the human disease (Manicassamy et al, 2014), surviving mice were sacrificed and the colon was excised and evaluated for macroscopic damage and local immune parameters. […] CTLA-4 haploinsufficiency typically presents with extensive CD3+T cell infiltration across different organs (Kuehn et al, 2014—Schubert et al, 2014—Schwab et al, 2018).
In the DSS+anti-CTLA-4-induced colitis, mice were treated intragastrically (Eudragit formulations) every other day starting 4 days before DSS treatment and continuing until mice sacrifice. Mice were evaluated for disease activity in terms of histopathology, parameters of barrier permeability function and intestinal inflammation.
Assessment of scaling doses of 0.09-0.045-0.022 mg/mouse (corresponding to 4.5, 2.25 and 1.12 mg/kg) in the murine model of immune-mediated colitis (DSS+anti-CTLA-4) was performed as shown in Table 2 below.
C57BL/6 mice were treated with DSS in drinking water for 1 week followed by a recovery period of another week and administered […] of anti-CTLA-4 mAb and 1ME3CA as depicted in the experimental schedule in FIG. 23A. Mice were evaluated for weight change (FIG. 23B), disease activity index (FIG. 23C), clinical morbidity and rectal bleeding (FIG. 23D), colon and ileum histology (FIG. 23E) (PAS staining), ×40 magnification (scale bars, 100 m). Each in vivo experiment includes four to six mice per group (20 mice in each experiment).
Photographs were taken with a high-resolution microscope, lung and spleen ×10 magnification (scale bars, 400 m) and liver and kidney ×20 magnification (scale bars, 200 m).

[2] = in vivo; details: C57BL/6, mouse, 18 mg/kg
Experimental: (§1) A single-dose pharmacokinetic (PK) study was performed on healthy C57BL/6 mice to compare 1ME3CA and 3-IAld at 0.36 mg/topo dose. Untreated naïve mice were used as the control. […] Blood, obtained by cardiac puncture and collected into EDTA-containing tubes, and organs (brain, lung, intestine, liver and kidney) were assessed. All samples were stored at −80° C. until use. To evaluate 1ME3CA and 3-IAld for functional activity, the expression of AhR-downstream genes were concomitantly evaluated in these mice.

[3] = target: T1, AhR (Homo sapiens, UniProt P35869); assay: AhR target gene expression by RT-PCR in A549, Calu-3, CaCo-2 and HepG32 cell lines; type: cell-based; parameters: endogenous in cells; host or cells: HepG2, A549, Calu-3, CaCo-2; details: for AhR activity at the higher 1000 M concentration: increased in CaCo-2 and HepG32 but not on Calu-3 cells
T1 sequence (P35869 11-848): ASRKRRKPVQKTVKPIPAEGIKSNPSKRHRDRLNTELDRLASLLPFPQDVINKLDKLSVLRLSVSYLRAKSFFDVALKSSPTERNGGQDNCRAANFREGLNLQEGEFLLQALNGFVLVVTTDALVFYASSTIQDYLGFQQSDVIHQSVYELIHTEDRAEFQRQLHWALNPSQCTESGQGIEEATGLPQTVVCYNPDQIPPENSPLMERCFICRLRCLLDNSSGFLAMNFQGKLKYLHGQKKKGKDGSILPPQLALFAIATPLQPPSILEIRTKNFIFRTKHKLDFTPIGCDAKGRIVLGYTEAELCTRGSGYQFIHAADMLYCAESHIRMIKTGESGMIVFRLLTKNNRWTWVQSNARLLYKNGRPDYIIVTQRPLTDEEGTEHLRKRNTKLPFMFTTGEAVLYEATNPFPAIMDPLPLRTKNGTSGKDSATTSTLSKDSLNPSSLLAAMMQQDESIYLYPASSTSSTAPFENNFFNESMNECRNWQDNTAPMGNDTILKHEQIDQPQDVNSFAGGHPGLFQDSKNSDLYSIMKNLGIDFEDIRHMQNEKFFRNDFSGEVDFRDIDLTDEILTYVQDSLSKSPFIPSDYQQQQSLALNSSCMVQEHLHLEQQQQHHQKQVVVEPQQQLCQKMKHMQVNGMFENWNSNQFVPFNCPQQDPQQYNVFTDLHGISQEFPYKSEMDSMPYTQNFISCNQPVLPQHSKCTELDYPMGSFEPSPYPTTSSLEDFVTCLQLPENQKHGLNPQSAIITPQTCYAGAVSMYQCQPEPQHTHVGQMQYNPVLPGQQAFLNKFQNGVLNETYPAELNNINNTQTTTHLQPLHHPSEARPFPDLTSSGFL
Experimental: ITE and FICZ are reference AhR agonists. Assays were performed at 4 hours post-incubation.
To further characterize the AhR agonistic potential of 1ME3CA, the ability of 3-IAld and 1ME3CA to activate target genes downstream AhR (Cyp1a1, Cyp2a1 and AhRR) in the A549 cell line derived from adenocarcinomic human alveolar basal epithelial cells, in the Calu-3 cell line derived from adenocarcinomic human bronchial epithelial cells, in the CaCo-2 cell line derived from human colon carcinoma and in the […] human liver cancer cell line was comparatively assessed. Cells were exposed to 1, 10, 100 and 1000 µM of either molecules or DMSO for 4 hours or overnight (on) at 37° C. before being assessed for the expression of the above-mentioned genes by RT-PCR.

[4] = single-dose pharmacokinetic study in healthy C57BL/6 mice, tissues and serum by mass spectrometry
Experimental: as §1

[5] = 1-methylindole-3-carboxylic acid
[6] = 1-methylindole-3-carboxylic acid 0.09, 0.18 or 0.36 mg/mouse every other day
[7] = 1-methylindole-3-carboxylic acid 0.09-0.36 mg/mouse
[8] = 3-IAld 18 mg/kg, colon homogenates
[9] = 3-IAld 18 mg/kg, surviving mice, 14 days
[10] = Eudragit-formulated 3-IAld 18 mg/kg intragastrically every other day

Cn1cc(C(=O)O)c2ccccc21 [1-methylindole-3-carboxylic acid, 1-Methyl-1H-indole-3-carboxylic acid]
inflammatory pathology, dose dependence ([1]; 0.09-0.045-0.022 mg/mouse): protects from inflammatory pathology
lymphocytic infiltration, dose dependence ([1]; listed as 1ME3CA): reduces lymphocytic infiltration in anti-CTLA-4-treated mice in a dose-dependent manner
lymphocytic infiltration, dose dependence ([1]; listed as MECA): reduces lymphocytic infiltration
Il1b expression in the colon [1, 5]: reduced levels
Il10 expression in the colon [1, 5]: increased levels
anti-inflammatory state and AhR activation [1, 5]: promotes an anti-inflammatory state and AhR activation
clinical morbidity and rectal bleeding [1, 6]: protected
disease activity index [1, 6]: decreased
CD3+ T cell (lymphocytic) infiltration in the lung [1, 7]: effective in reducing; also recorded: reduces lymphocytic infiltration
CD3+ T cell infiltration in the ileum and colon [1, 7]: significantly reduced
gut inflammatory pathology (overall) [1, 7]: prevent gut inflammatory pathology; also recorded: protects from inflammatory pathology
normal architectural structure of the colon and ileum [1, 7]: recovery
epithelial barrier function (expression of ZO-1) ([1]; 1-methylindole-3-carboxylic acid 0.09-0.36 mg/mouse, colon and ileum): maintenance
expression of the AhR-dependent genes Cyp1a1, the antimicrobial peptide Reg3g, and 1122 ([1]; 1-methylindole-3-carboxylic acid, listed as 1-Methylindole-3-Carboxylic Acid): Potent Activator
expression of the AhR-dependent genes Cyp1a1, the antimicrobial peptide Reg3g, and 1122 ([1]; 1-methylindole-3-carboxylic acid, listed as 1-methylindole-3-carboxylic): induced the expression
body weight loss ([1]; Eudragit-formulated 1-methylindole-3-carboxylic acid 0.09, 0.18 or 0.36 mg/mouse intragastrically every other day): significant attenuation
effects at each administered dose ([1]; each dose including 0.09 mg/mouse): Positive effects
efficacy dose [1]: 2.25 mg/kg
Tmax ([2]; in vivo): 0.5 h
AhR agonistic activity versus 3-IAld (overall) [3]: comparable, if not superior
expression of the IDO1 and IDO2 genes [3]: No activity was observed
expression of AhR-dependent Cyp1a1, Cyp2a1 and AhRR genes ([3]; cell lines tested, 4 hours or overnight): promoted the expression
AhR activity at the higher 1000 M concentration [3]: inconsistent results
extent of gene expression versus reference AhR ligands ITE or FICZ and 3-IAld ([3]; similar concentration, i.e. 100 μM): comparable, or even superior
detectability at 6 hours in serum, lung, and kidneys ([4]; after enteric 1ME3CA 18 mg/Kg): undetectable
Cmax values ([4]; after enteric 1ME3CA 18 mg/Kg, all organs and serum): very similar
levels 24 hours after the administration in intestine, liver and brain ([4]; after enteric 1ME3CA 18 mg/Kg, versus control): still higher than control
systemic levels versus those after oral 3-IAld ([4]; after oral 1ME3CA): more sustained and, as expected, significantly higher
clearance of metabolites from the organs ([4]; after oral 3-IAld 18 mg/Kg): rapid clearance
concentrations in the intestine, serum, and kidney ([4]; after oral 3-IAld 18 mg/Kg): basal
level 24 hours after administration of 3-IAld ([4]; mice administered with 3-IAld): had disappeared

O=Cc1c[nH]c2ccccc12 [3-IAld, 1H-indole-3-carbaldehyde]
anti-inflammatory state ([1]; 3-IAld 18 mg/kg): promotes an anti-inflammatory state
epithelial barrier integrity ([1]; 3-IAld 18 mg/kg): provides epithelial barrier integrity
expression of IL-22 (gene and protein) ([1]; 3-IAld 18 mg/kg): induced expression
expression of Lgr5, Nfil3 and Muc1 ([1]; 3-IAld 18 mg/kg): promoted the expression
expression of the AhR-dependent genes Cyp1a1 and Ahrr ([1]; 3-IAld 18 mg/kg): induced expression
expression of the antimicrobial peptide Reg37 ([1]; 3-IAld 18 mg/kg): induced expression
gut inflammatory pathology (overall) ([1]; 3-IAld 18 mg/kg intragastrically every other day): prevent gut inflammatory pathology; also recorded: protects from inflammatory pathology
amounts of IL-10 [1, 8]: increased amounts
levels of TNF-α, IL-10 and IL-17A [1, 8]: reduced levels
levels of calprotectin [1, 8]: reduced
passage of dextran-FITC across the intestinal barrier ([1]; 3-IAld 18 mg/kg, serum): reduced
epithelial barrier function (expression of ZO-1) [1, 9]: recovery
epithelial cell proliferation and renewal (Ki-67 staining) [1, 9]: recovery
gross pathology [1, 9]: improved
normal architecture structure of the colon [1, 9]: recovery
body weight [1, 10]: increased
disease activity index [1, 10]: decreased
survival [1, 10]: increased
efficacy dose [1]: 18 mg/kg
half-life ([2]; po): 3 to 5 h
expression of the IDO1 and IDO2 genes [3]: No activity was observed
AhR activity at the higher 1000 M concentration [3]: inconsistent results
concentrations in all organs ([4]; after enteric 1ME3CA 18 mg/Kg): basal
disappearance of 3-IAld from tissues ([4]; single oral 18 mg/Kg 3-IAld, enteric microparticles, after 2 hours, most tissues): rapidly disappeared
